According to patent publication US8759011B2, “Assay system for determining binding of hydrophobic drugs” (Nederlandse Organisatie voor …, priority 2009, dated 2014):

Test system: human plasma
Experiment: plasma binding by partition extraction in dimethylsiloxane-coated 96-well plates
Type: in vitro ADME
Settings: for counts in the polymer coating: one plate
Procedure: 96-wells deepwell plates (lot 1450-401 Perkin-Elmer Lifesciences) were coated with dimethylsiloxane by making the solutions A-H here below in n-hexane. The used dimethylsiloxane (Silicone rubber, GE Silicones, Bergen op Zoom, The Netherlands) has a density of 1.06. Solution H contains 9.54 g dimethylsiloxane in 300 ml n-hexane.
From solutions A-H 100 μl is pipetted in row A-H of each plate. Plates were dried to air for minimally 18 hours (overnight).
To each dilution of plasma (solutions 1-12) an identical amount of the compound to be tested is added (about […]/200 μl solution). […] The solutions are incubated with the compound overnight at 4°.
The plasma solutions 1-12 are added to corresponding columns 1-12 of each plate (200 μl/well). Also 200 μl was added to a separate vessel to be able to correct for (plasma concentration dependent) solubilization. The next day the plates are emptied, washed once with aqua bidest and dried. When sufficient dry in all wells 200 μl counting solution (Optiphase Hisafe 2, Perkin Elmer Lifesciences) is added and the plates are covered. After incubation for minimally 4 hours under gently shaking the radioactivity in each plate is determined using liquid scintillation counting with a MicroBeta device (Perkin Elmer).
Additionally a total count was determined for each well. The total count is the count in the polymer coating+the count in the remaining fluid. The latter was determined by isolating 25 μl from solution in each well prior to emptying, and mixing with Optiphase (Perkin Elmer) followed by liquid scintillation counting.
1. For each datapoint for which the total count was determined, the recovery of total radioactivity was determined by comparing with the counts of the reference spiking solution. Cells with a total recovery <75% were excluded from further data analysis.
2. From all rows containing polymer, the a-specific binding, i.e. the corresponding counts from the row without polymer, was substracted.
3. Curve fitting was applied using the following formula for each cell:
Predicted counts in coating=Tc/((1/ffp+1/fp−1)×(fp×Vw)/Kpdms/Vp)), where
The above formula was fitted using ffp and Kpdms target parameters to be optimized using the least squares regression method over all wells that were included in the data analysis, by calculating the squared difference between the measured counts in the coating and the predicted counts in the coating. Results

SMILES: C=C1CC[C@H](O)C/C1=C/C=C1\CCC[C@]2(C)[C@@H]([C@H](C)CCCC(C)(C)O)CC[C@@H]12 [25-hydroxy vitamin D3]
- Free fraction ± s.d. (fitted free fraction for 100% plasma, ratio between free fraction and total concentration, average of six 96 well plates): 0.000502 ± 0.000060
- counts in the polymer coating (plasma 0 ml/ml, coating 0 nl): 1529
- counts in the polymer coating (plasma 0 ml/ml, coating 4.1 nl): 2095
- counts in the polymer coating (plasma 0 ml/ml, coating 10.2 nl): 3498
- counts in the polymer coating (plasma 0 ml/ml, coating 25.6 nl): 4260
- counts in the polymer coating (plasma 0 ml/ml, coating 64 nl): 5814
- counts in the polymer coating (plasma 0 ml/ml, coating 160 nl): 7292
- counts in the polymer coating (plasma 0 ml/ml, coating 400 nl): 8015
- counts in the polymer coating (plasma 0 ml/ml, coating 1000 nl): 8491
- counts in the polymer coating (plasma 0.0005 ml/ml, coating 0 nl): 639
- counts in the polymer coating (plasma 0.0005 ml/ml, coating 4.1 nl): 1753
- counts in the polymer coating (plasma 0.0005 ml/ml, coating 10.2 nl): 2581
- counts in the polymer coating (plasma 0.0005 ml/ml, coating 25.6 nl): 4428
- counts in the polymer coating (plasma 0.0005 ml/ml, coating 64 nl): 8145
- counts in the polymer coating (plasma 0.0005 ml/ml, coating 160 nl): 12361
- counts in the polymer coating (plasma 0.0005 ml/ml, coating 400 nl): 15727
- counts in the polymer coating (plasma 0.0005 ml/ml, coating 1000 nl): 16960
- counts in the polymer coating (plasma 0.0008 ml/ml, coating 0 nl): 495
- counts in the polymer coating (plasma 0.0008 ml/ml, coating 4.1 nl): 1176
- counts in the polymer coating (plasma 0.0008 ml/ml, coating 10.2 nl): 1649
- counts in the polymer coating (plasma 0.0008 ml/ml, coating 25.6 nl): 3019
- counts in the polymer coating (plasma 0.0008 ml/ml, coating 64 nl): 6029
- counts in the polymer coating (plasma 0.0008 ml/ml, coating 160 nl): 10164
- counts in the polymer coating (plasma 0.0008 ml/ml, coating 400 nl): 13748
- counts in the polymer coating (plasma 0.0008 ml/ml, coating 1000 nl): 15479
- counts in the polymer coating (plasma 0.001 ml/ml, coating 0 nl): 419
- counts in the polymer coating (plasma 0.001 ml/ml, coating 4.1 nl): 972
- counts in the polymer coating (plasma 0.001 ml/ml, coating 10.2 nl): 1545
- counts in the polymer coating (plasma 0.001 ml/ml, coating 25.6 nl): 2658
- counts in the polymer coating (plasma 0.001 ml/ml, coating 64 nl): 5501
- counts in the polymer coating (plasma 0.001 ml/ml, coating 160 nl): 9700
- counts in the polymer coating (plasma 0.001 ml/ml, coating 400 nl): 13183
- counts in the polymer coating (plasma 0.001 ml/ml, coating 1000 nl): 15022
- counts in the polymer coating (plasma 0.003 ml/ml, coating 0 nl): 151
- counts in the polymer coating (plasma 0.003 ml/ml, coating 4.1 nl): 399
- counts in the polymer coating (plasma 0.003 ml/ml, coating 10.2 nl): 603
- counts in the polymer coating (plasma 0.003 ml/ml, coating 25.6 nl): 1258
- counts in the polymer coating (plasma 0.003 ml/ml, coating 64 nl): 2547
- counts in the polymer coating (plasma 0.003 ml/ml, coating 160 nl): 5687
- counts in the polymer coating (plasma 0.003 ml/ml, coating 400 nl): 9284
- counts in the polymer coating (plasma 0.003 ml/ml, coating 1000 nl): 11307
- counts in the polymer coating (plasma 0.005 ml/ml, coating 0 nl): 109
- counts in the polymer coating (plasma 0.005 ml/ml, coating 4.1 nl): 257
- counts in the polymer coating (plasma 0.005 ml/ml, coating 10.2 nl): 428
- counts in the polymer coating (plasma 0.005 ml/ml, coating 25.6 nl): 866
- counts in the polymer coating (plasma 0.005 ml/ml, coating 64 nl): 1719
- counts in the polymer coating (plasma 0.005 ml/ml, coating 160 nl): 3804
- counts in the polymer coating (plasma 0.005 ml/ml, coating 400 nl): 7410
- counts in the polymer coating (plasma 0.005 ml/ml, coating 1000 nl): 10375
- counts in the polymer coating (plasma 0.008 ml/ml, coating 0 nl): 95
- counts in the polymer coating (plasma 0.008 ml/ml, coating 4.1 nl): 212
- counts in the polymer coating (plasma 0.008 ml/ml, coating 10.2 nl): 372
- counts in the polymer coating (plasma 0.008 ml/ml, coating 25.6 nl): 686
- counts in the polymer coating (plasma 0.008 ml/ml, coating 64 nl): 1331
- counts in the polymer coating (plasma 0.008 ml/ml, coating 160 nl): 3035
- counts in the polymer coating (plasma 0.008 ml/ml, coating 400 nl): 5863
- counts in the polymer coating (plasma 0.008 ml/ml, coating 1000 nl): 9044
- counts in the polymer coating (plasma 0.01 ml/ml, coating 0 nl): 90
- counts in the polymer coating (plasma 0.01 ml/ml, coating 4.1 nl): 169
- counts in the polymer coating (plasma 0.01 ml/ml, coating 10.2 nl): 293
- counts in the polymer coating (plasma 0.01 ml/ml, coating 25.6 nl): 523
- counts in the polymer coating (plasma 0.01 ml/ml, coating 64 nl): 1054
- counts in the polymer coating (plasma 0.01 ml/ml, coating 160 nl): 2408
- counts in the polymer coating (plasma 0.01 ml/ml, coating 400 nl): 5093
- counts in the polymer coating (plasma 0.01 ml/ml, coating 1000 nl): 8309
- counts in the polymer coating (plasma 0.02 ml/ml, coating 0 nl): 82
- counts in the polymer coating (plasma 0.02 ml/ml, coating 4.1 nl): 98
- counts in the polymer coating (plasma 0.02 ml/ml, coating 10.2 nl): 182
- counts in the polymer coating (plasma 0.02 ml/ml, coating 25.6 nl): 278
- counts in the polymer coating (plasma 0.02 ml/ml, coating 64 nl): 641
- counts in the polymer coating (plasma 0.02 ml/ml, coating 160 nl): 1394
- counts in the polymer coating (plasma 0.02 ml/ml, coating 400 nl): 3130
- counts in the polymer coating (plasma 0.02 ml/ml, coating 1000 nl): 5582
- counts in the polymer coating (plasma 0.03 ml/ml, coating 0 nl): 62
- counts in the polymer coating (plasma 0.03 ml/ml, coating 4.1 nl): 75
- counts in the polymer coating (plasma 0.03 ml/ml, coating 10.2 nl): 130
- counts in the polymer coating (plasma 0.03 ml/ml, coating 25.6 nl): 237
- counts in the polymer coating (plasma 0.03 ml/ml, coating 64 nl): 409
- counts in the polymer coating (plasma 0.03 ml/ml, coating 160 nl): 988
- counts in the polymer coating (plasma 0.03 ml/ml, coating 400 nl): 2209
- counts in the polymer coating (plasma 0.03 ml/ml, coating 1000 nl): 4228
- counts in the polymer coating (plasma 0.04 ml/ml, coating 0 nl): 55
- counts in the polymer coating (plasma 0.04 ml/ml, coating 4.1 nl): 68
- counts in the polymer coating (plasma 0.04 ml/ml, coating 10.2 nl): 87
- counts in the polymer coating (plasma 0.04 ml/ml, coating 25.6 nl): 153
- counts in the polymer coating (plasma 0.04 ml/ml, coating 64 nl): 342
- counts in the polymer coating (plasma 0.04 ml/ml, coating 160 nl): 722
- counts in the polymer coating (plasma 0.04 ml/ml, coating 400 nl): 1681
- counts in the polymer coating (plasma 0.04 ml/ml, coating 1000 nl): 3295
- counts in the polymer coating (plasma 0.05 ml/ml, coating 0 nl): 47
- counts in the polymer coating (plasma 0.05 ml/ml, coating 4.1 nl): 48
- counts in the polymer coating (plasma 0.05 ml/ml, coating 10.2 nl): 70
- counts in the polymer coating (plasma 0.05 ml/ml, coating 25.6 nl): 153
- counts in the polymer coating (plasma 0.05 ml/ml, coating 64 nl): 296
- counts in the polymer coating (plasma 0.05 ml/ml, coating 160 nl): 588
- counts in the polymer coating (plasma 0.05 ml/ml, coating 400 nl): 1354
- counts in the polymer coating (plasma 0.05 ml/ml, coating 1000 nl): 2501
